Values quoted from earlier work in US7491713B2, “CGRP receptor antagonists” (Merck + Co., Inc., priority 2004, dated 2009).
Ends that are not written are not given here.

Columns and labels:
marmoset = marmoset (Doods et al. 2000)
rat = rat (Escott et al. 1995)
rats = conditions: prior administration (Williamson et al. 1997)

Compound | effect on stimulation-induced increase of facial blood flow (marmoset) | effect on stimulation-induced increase of facial blood flow (rat) | effect on stimulation-induced increase of middle meningeal artery diameter (rats)
NCCCC[C@H](NC(=O)[C@@H](Cc1cc(Br)c(O)c(Br)c1)NC(=O)N1CCC(N2Cc3ccccc3NC2=O)CC1)C(=O)N1CCN(c2ccncc2)CC1 [BIBN4096BS] | blocked | – | –
CGRP(8-37): a fragment of CGRP that lacks seven N-terminal amino acid residues; a peptide CGRP antagonist (VTHRLAGLLSRSGGVVKNNFVPTNVGSKAF; ends and bridges not checked; UniProt P06881 90-119, looked up, fragment) | – | inhibited | blocked
